# Data published in patent US12646341B2, “Image processing method and image processing program” (TOPPAN Inc., priority 2020, dated 2026).
# Test system: vascular network structure of 3D hepatic model (PXB cells, SEC, Lx2)
# Description: The vascular network structure of the cell structure becomes visible by subjecting the 3D hepatic model to immunostaining, fluorescent modification, or a combination of immunostaining and fluorescent modification.
# The preparation process may include, for example, a first collection process of collecting cells other than fresh human hepatocytes isolated from chimeric mice with human hepatocytes (PXB cell) shown in Table 1, a second collection process of collecting PXB cells, a mixture obtaining process of obtaining a cell mixture, a suspension obtaining process of obtaining a cell suspension, a gel formation process of forming a fibrin gel, and a model obtaining process of obtaining a 3D model.
# In the mixture obtaining process, for example, the cells collected in the first collection process and the second collection process are mixed so that a total quantity of cells per well becomes 30,000 cells at the cell ratios of PXB cells, SEC and Lx2 in the tissue of 65%, 25% and 10%, respectively, to obtain a cell mixture (an example of cell structure). The cell mixture contains multiple types of cells including vascular endothelial cells and other stromal cells.
# In the suspension obtaining process, first, for example, a heparin-collagen solution is prepared by mixing equal amounts of a 1.0 mg/ml heparin solution (buffer: 100 mM Tris-HCL) and a 0.3 mg/ml collagen solution (buffer: 5 mM acetate). Then, 100 μL of the heparin-collagen solution prepared as described above is added to each cell mixture obtained in the mixture obtaining process, and the mixture is suspended until the cells are no longer visually observable and then centrifuged (400 g×2 min) to obtain a viscous solution. After the supernatant is removed from the viscous solution, a solvent is added to the viscous solution so that the final volume of the viscous solution becomes the solution amount of [the number of wells to be seeded]×2 μL. Thus, a cell suspension is obtained. […]
structure (smiles),measurement,setting,value
O=P1(N(CCCl)CCCl)NCCCO1 (stereo not drawn) [cyclophosphamide],length of the vascular network structure in the captured images,"FIGS. 9A-9F, dosage concentration 0 M, 143 M, 430 M, 1430 μM, 4300 μM and 14300 M","the higher the dosage concentration of cyclophosphamide, the smaller the length of the vascular network structure"
same,skeleton length in the extracted images,"FIGS. 9G-9L, dosage concentration 0 M, 143 M, 430 M, 1430 μM, 4300 μM and 14300 M","the higher the dosage concentration of cyclophosphamide, the smaller the skeleton length"
same,shape of the vascular network structure (skeleton length and number of branch points in the extracted images),"FIGS. 10A and 10B, against dosage concentration",the shape of the vascular network structure significantly changes and the vascular network structure decreases when the dosage concentration of cyclophosphamide exceeds a certain level
